{"source": "patent US20150374705A1", "about": "“Substances for treatment or relief of pain” (Shanghai Institues for Biological Sciences, priority 2012, published 2015)", "assay_type_in_all_cases": "in vivo", "key": {"[1]": {"system": "CFA induced inflammatory pain model rats (heat pain)", "assay": "CFA induced inflammatory pain model, heat pain threshold", "conditions": "rat, spinal injection the day before CFA, measured every day"}, "[2]": {"system": "α5 subunit protein of GABAA receptor in dorsal root ganglion", "assay": "Knock-down of α5 subunit of GABAA receptor in dorsal root ganglion, western blot", "conditions": "rat, intrathecal injection", "experimental": "In western blot experiment, obtained dorsal root ganglion was lysed in RIPA (50 mM Tris (pH7.4), 150 mM NaCl, 1% Triton X-100, 1% sodium deoxycholate, 0.1% SDS as well as sodium orthovanadate, sodium fluoride, EDTA and leupeptin. The proteins were boiled at 100° C. for 5 minutes for denaturation. 10-20 μl samples were added into the prepared channels after the protein samples became cool. Then, electrophoresis was conducted at 60 V for 30 minutes. After the samples passed the boundary between the upper layer gel and the lower layer gel, the voltage was adjusted to 90 V until bromophenol blue reached the lower edge of the lower layer gel. After electrophoresis, the SDS gel that contained target bands was cut for transferring. Through electric transferring, the negative charged proteins were transferred to positive charged PVDF membrane. The blocking buffer that contained 5% skim milk powder was used to block the membrane for 1 hour to reduce unspecific binding. Then, the PVDF membrane was immersed in the blocking buffer containing primary antibody and incubated overnight at 4° C. or 1-2 hours at room temperature. […] Finally, PVDF membrane was incubated with the substrate of horse radish peroxidase ECL-PLUS for 5 minutes in dark to produce fluorescence signal. Then X-ray film was used to capture the fluorescence signal on PVDF membrane. […]"}, "[3]": {"system": "SNI model rats (neuropathic pain)", "assay": "Spared nerve injury (SNI) model, neuropathic pain, mechanical pain threshold", "conditions": "rat, intrathecal injection 7 days after SNI, threshold at 9-17 days", "experimental": "Male SD rats (200-250 g) were used, 6 per group in the cage. All the animals were placed under 12 hours light/cycle (i.e. 12 hours light and 12 hours dark in each day), free to food and water. All the experiments were conducted under the condition that the observers were blind to pharmaceutical treatment.\nSpared nerve injury model (SNI): 10% chloral hydrate was injected intraperitoneally to anesthetize rats. […] The muscle was longitudinally separated to expose the core of sciatic nerve and the branching below: tibial nerve, common peroneal nerve and sural nerve. The tibial nerve and common peroneal nerve were ligatured and cut and small sural nerve was retained, meanwhile preventing any injury. The muscle and skin were sutured layer by layer, and then antibiotics were injected intraperitoneally for antibacterial purpose. For detailed methods, please refer to Decosterd I and Woolf C J. Spared nerve injury: an animal model of persistent peripheral neuropathic pain. 2000 August; Pain 87(2):149-58.\nMethod for detecting mechanical hyperalgesia in rats: firstly CFA solution was injected in the thenar of rats. After 24 hours, mechanical hyperalgesia quantitative detection was adopted to measure the paw withdrawal of rats to normal and harmless mechanical stimulation. Evaluation was conducted according to reference (Chaplan S R et al., Quantitative assessment of tactile allodynia in the rat paw. J Neurosci Methods. 1994 July; 53(1):55-63). In this method, the von Frey fibers with different bending force (equivalent to the range of 1-50 g force) were used to apply harmless mechanical stimulation. The rats were placed in organic glass box with metal mesh plate, and the von Frey fibers were applied on the surface of leg thenar. The von Frey fibers were applied vertically to the surface of thenar to generate the force that will trigger slight resistance to the leg. 2-3 seconds were maintained for every leg thenar. If the leg withdrew suddenly, positive records were recorded. The threshold was the mean of the weight that caused 50% paw withdrawal response (5-6 paw withdrawal/10 stimulations) in overall 10 stimulations.\nCompounds MRK 016, C2, C3, C4, C5, C6, C7, C8 or α5IA (A5I) were dissolved in 70% PGE400 (PGE400:water=70:30 in volume). For injection dose, MRK016 was 2 mg/kg body weight; A5I was 3 mg/kg body weight; C2, C3, C4, C5, C6, C7 and C8 were 3 mg/kg body weight.\nMRK016-M3 was dissolved in 90% PGE400 (PGE400:water=90:10 in volume). The doses were 10 mg/kg, 3 mg/kg, 1 mg/kg and 0.3 mg/kg, respectively for oral administration.\nThe method for behavioral data statistics was unpaired t-test. *, p<0.05, represents significant difference."}, "[4]": {"system": "CFA induced inflammatory pain model rats (mechanical pain)", "assay": "CFA induced inflammatory pain model, mechanical pain threshold", "conditions": "rat, spinal injection the day before CFA, measured every day"}}, "data": [{"substance": "siRNA specific to the mRNA of α5-GABAA receptor: siRNA, sequence 5′GGUGCGAACAGACAUCUAUTT 3′ (chemistry not given here)", "values": [{"measurement": "Heat pain threshold after siRNA", "setting": "[1]", "result": "inhibit the inflammatory pain efficiently"}, {"measurement": "Expression of the α5 subunit of GABAA receptor in dorsal root ganglion", "setting": "[2]", "result": "significantly knocked-out the expression"}, {"measurement": "Pain threshold in SNI model after siRNA", "setting": "[3]", "result": "significantly elevated pain threshold"}, {"measurement": "Mechanical pain threshold after siRNA", "setting": "[4]", "result": "inhibit the inflammatory pain efficiently"}]}]}
